# Results published in US7071168B2, “Anti-cancer compounds and methods related thereto” (The Regents of the University of Colorado, priority 1998, dated 2006).
# Columns and labels:
# [1] = system: bradykinin response of isolated guinea pig ileum; assay: Anti-bradykinin activity on isolated guinea pig ileum
# Protocol: (§1) In general, Anti-bradykinin activity was determined by the classical guinea pig ileum assay and on Chinese hamster ovary (CHO) cells expressing cloned human bradykinin B2 receptors. Anti-tumor activity was determined on cultured human cancer cell lines using the standard tetrazolium (MTT) assay.
# Male Hartley guinea pigs that had been deprived of food overnight were sacrificed, and sections of terminal ileum, 25 mm in length, were dissected, attached to tissue holders and immersed in 10 ml tissue baths containing Krebs' solution bubbled with 95% O2/5% CO2. Tissues were placed under 1 g tension and incubated for 1 h equilibration. Concentration-effect curves were constructed to bradykinin in the absence and presence of new compounds.
# [2] = system: SCLC strain SHP-77; assay: Colorimetric tetrazolium (MTT) assay for cell survival, SCLC strain SHP-77; assay type: cell-based, human
# Protocol: as §1
# Cell growth and survival were measured by a rapid colorimetric assay based on the tetrazolium salt MTT (3-(4,5-dimethylthiazol-2-yl)-2,5-diphenyl tetrazolium bromide) (Mosmann, J Immunol. Methods 65: 55–63, 1983, with minor modifications). Briefly, 1,000 normal lung fibroblasts or normal epithelial BEAS-2B cells, 1,000 or 5,000 viable non-SCLC cells or 10,000 viable SCLC cells were plated in 100 μL of growth medium in 96-well flat-bottomed microtiter plates. Cells were incubated overnight to allow recovery. Compounds to be tested were added to the cells in triplicate in a range of concentrations and the cells were incubated at 37° C., 5% CO2, with 100% humidity. Control cells were treated in the same way without antagonists. […] Plates were incubated for 4 days, allowing sufficient time for cell replication and compound-induced cell death to occur. On day 5, 25 μL of a 2 mg/mL solution of MTT (Sigma) dissolved in RMPI-1640was added to each well. The plate was incubated for 4 h at 37° C. The supernate was removed and the blue formazan complex was dissolved by adding 100 μL of 0.02 N HCl in 75% isopropanol to all wells. Absorbance was immediately determined using a scanning multiwell plate reader. B9870 caused 50% cell death at a concentration of 0.15 μM under these conditions.
# [3] = Table 1, higher numbers indicate higher potency
# [4] = isolated guinea pig ileum, pD2 of bradykinin is 7.4, higher numbers indicate higher potency
Compound,"GPI: pA2 for bradykinin antagonist activity on isolated guinea pig ileum [1, 3]","MTT: ED50 for killing of SCLC strain SHP-77 in vitro ([2]; Table 1, SHP-77, MTT, 4 days)",MTT: ED50 for killing of SCLC strain SHP-77 in vitro ([2]; SCLC strain SHP-77 in vitro) [µM],also measured
F5c-Gly-mABz-2Nal-Arg [M196],5.1,Inact,,
(Gun)2-BApG-DArg-Arg-Pro-Hyp-Gly-Igl-Ser-DIgl-Oic-Arg [B10092],8.7,>20 µM,,
CC1(C)CC(NC(=O)[C@H](Cc2ccc3ccccc3c2)NC(=N)CCCCCCCCCCCCC(=N)N[C@@H](Cc2ccc3ccccc3c2)C(=O)NC2CC(C)(C)NC(C)(C)C2)CC(C)(C)N1 [M254-2],,,5,"GPI: pA2 for bradykinin antagonist activity on isolated guinea pig ileum [1, 4]: 5.8"
DDD-(DIgl-hPhe-Arg)2 [M776],5,30 µM,,
F5c-NMF-Arg [M686],5.6,29 µM,,
c[DArg-Arg-Aud-DF5F-Oic-Arg] [M868-2],,,,"GPI: pA2 for bradykinin antagonist activity on isolated guinea pig ileum ([1]; Table 3, cyclic peptides): 6.1; MTT: ED50 for killing of SCLC strain SHP-77 in vitro ([2]; Table 3, cyclic peptides): 9.2 µM"
F5c-PFF-Arg [M718],5.1,9 µM,,
CC1(C)CC(NC(=O)C(Cc2ccc3ccccc3c2)NC(=O)CCSSCCC(=O)NC(Cc2ccc3ccccc3c2)C(=O)NC2CC(C)(C)NC(C)(C)C2)CC(C)(C)N1 (stereo not shown) [M286],,,24,"GPI: pA2 for bradykinin antagonist activity on isolated guinea pig ileum [1, 4]: 5.1"
F5c-MBC-Arg [M528],Inact,Inact,,
F5c-DArg-Arg-Add-Ser-DIgl-Oic-Arg [M860],5.4,6 µM,,
DDD-(DArg-F5F-DArg)2 [M1036],5.4,40 µM,,
CC1(C)CC(NC(=O)[C@H](Cc2ccc3ccccc3c2)NC(=N)CCCCCCCCCCCCC(=N)N[C@@H](Cc2ccc3ccccc3c2)C(=O)NC2CC(C)(C)NC(C)(C)C2)CC(C)(C)N1 [M254-1],,,5,"GPI: pA2 for bradykinin antagonist activity on isolated guinea pig ileum [1, 4]: 5.1"
DDD-(DArg-Arg-Eac-Ser-DTic-Oic-Arg)2 [M794],Inact,21 µM,,
D-Arg-Arg-Aud-PaF(F5c)-Arg [M726],5.6,Inact,,
c[DArg-Arg-Aud-Ser-DF5F-Oic-Arg] [M876],,,,"GPI: pA2 for bradykinin antagonist activity on isolated guinea pig ileum ([1]; Table 3, cyclic peptides): 5.4; MTT: ED50 for killing of SCLC strain SHP-77 in vitro ([2]; Table 3, cyclic peptides): 22.5 µM"
EGS-(DArg-Arg-Eac-Ser-DF5F-Nc7G-Arg)2 [M1030],7.0,51 µM,,
F5c-DArg-Eac-hPhe-Arg [M738],5.3,Inact,,
DDD-(Pac-hPhe-Arg)2 [M746],Inact,Inact,,
CN(C)c1ccc(C=CC(=O)NC(Cc2ccc3ccccc3c2)C(=O)NC2CC(C)(C)NC(C)(C)C2)cc1 (stereo not shown) [M324],,,3,"GPI: pA2 for bradykinin antagonist activity on isolated guinea pig ileum [1, 4]: 5.2"
F5c-DArg-Arg-Aud-DIgl-hPhe-Arg [M774],Inact,8 µM,,
CN(C(=O)C(Cc1ccc(OCc2c(Cl)cccc2Cl)cc1)NC(=O)C=Cc1cccnc1)C1CC(C)(C)NC(C)(C)C1 (stereo not shown) [M626],,,3.7,"GPI: pA2 for bradykinin antagonist activity on isolated guinea pig ileum [1, 4]: 4.8"
TDIM-(DArg-Arg-Pro-Hyp-Gly-Thi-Ser-DIgl-Oic-Arg)2 [B10104-2],8.0,4 µM,,
F5c-Lys-Ser-DF5F-Oic-Arg [M802],6.3,Inact,,
F5c-DArg-Arg-Aud-DIgl-PFF-Arg [M838],5.1,7.4 µM,,
c[DArg-Arg-Pro-Hyp-Gly-Igl-Ser-DIgl-Oic-Arg] [B10302],,,,"GPI: pA2 for bradykinin antagonist activity on isolated guinea pig ileum ([1]; Table 3, cyclic peptides): 5.2; MTT: ED50 for killing of SCLC strain SHP-77 in vitro ([2]; Table 3, cyclic peptides): Inact"

Compound,"GPI: pA2 for bradykinin antagonist activity on isolated guinea pig ileum [1, 3]","MTT: ED50 for killing of SCLC strain SHP-77 in vitro ([2]; Table 1, SHP-77, MTT, 4 days)",MTT: ED50 for killing of SCLC strain SHP-77 in vitro ([2]; SCLC strain SHP-77 in vitro) [µM],also measured
F5c-DArg-Arg-Eac-Ser-DIgl-Oic-Arg [M852],5.9,Inact,,
DDD-(DArg-Arg-Aud-DIgl-PFF-Arg)2 [M842],Inact,1.4 µM,,
DDD-(DArg-Arg-Aud-Ser-DIgl-Oic-Arg)2 [M858],6.3,4 µM,,
F5c-DArg-Arg-Aud-Ser-DIgl-Oic-Arg [M856],5.4,21 µM,,
COc1cc(C=CC(=O)N[C@@H](Cc2ccc3ccccc3c2)C(=O)NC2CC(C)(C)NC(C)(C)C2)cc(OC)c1O [M274],,,36,"GPI: pA2 for bradykinin antagonist activity on isolated guinea pig ileum [1, 4]: 4.7"
CC1(C)CC(NC(=O)[C@@H](Cc2ccc3ccccc3c2)NC(=NC2CCCCC2)NC2CCCCC2)CC(C)(C)N1 [M262],,,6,"GPI: pA2 for bradykinin antagonist activity on isolated guinea pig ileum [1, 4]: 5.3"
c[Ava-Igl-Ser-DF5F-Oic-Arg] [M824],,,,"GPI: pA2 for bradykinin antagonist activity on isolated guinea pig ileum ([1]; Table 3, cyclic peptides): 5.2; MTT: ED50 for killing of SCLC strain SHP-77 in vitro ([2]; Table 3, cyclic peptides): Inact"
CN(C(=O)[C@H](Cc1ccc(OCc2c(Cl)cccc2Cl)cc1)NC(=O)c1nc(Cl)c(Cl)c(N)c1Cl)C1CC(C)(C)NC(C)(C)C1 [M632],,,1.4,"GPI: pA2 for bradykinin antagonist activity on isolated guinea pig ileum [1, 4]: 5.4"
O=C(NC1CN2CCC1CC2)C(NC(=NC1CCCCC1)NC1CCCCC1)C1Cc2ccccc2C1 (stereo not shown) [M12],,,20,"GPI: pA2 for bradykinin antagonist activity on isolated guinea pig ileum [1, 4]: 5.0"
c[DArg-Arg-Add-Ser-DF5F-Oic-Arg] [M874],,,,"GPI: pA2 for bradykinin antagonist activity on isolated guinea pig ileum ([1]; Table 3, cyclic peptides): 5.0; MTT: ED50 for killing of SCLC strain SHP-77 in vitro ([2]; Table 3, cyclic peptides): 11 µM"
CC1(C)CC(NC(=O)C(Cc2cccc3ccccc23)NC(=O)C(Cc2cnc[nH]2)NC(=O)CCCCCCCCCCC(=O)NC(Cc2cnc[nH]2)C(=O)NC(Cc2cccc3ccccc23)C(=O)NC2CC(C)(C)NC(C)(C)C2)CC(C)(C)N1 (stereo not shown) [M660],,,30,
Aaa-DArg-Arg-Aud-Ser-D5F5-Oic-Arg [M956],,14 µM,,
CC1(C)CC(NC(=O)C(NC(=O)C=Cc2ccc(N)cc2)C2Cc3ccccc3C2)CC(C)(C)N1 (stereo not shown) [M292],,,40,
CC1(C)CC(NC(=O)C2CC3CCCCC3N2C(=O)C=Cc2c(F)c(F)c(F)c(F)c2F)CC(C)(C)N1 (stereo not shown) [M320],,,13,
CC1(C)CC(NC(=O)C2Cc3ccccc3CN2C(=O)C=Cc2c(F)c(F)c(F)c(F)c2F)CC(C)(C)N1 (stereo not shown) [M322],,,7.6,
Ppa-PFF-Arg [M814],,Inact,,
Aca-DArg-Arg-Aud-Ser-D5F5-Oic-Arg [M960],,21 µM,,
c[DArg-Arg-Eac-DIgl-PFF-Arg] [M896],,,,"MTT: ED50 for killing of SCLC strain SHP-77 in vitro ([2]; Table 3, cyclic peptides): 65 µM"
O=C(CCCCCCCCCCC(=O)N[C@@H](Cc1cccnc1)C(=O)N[C@@H](Cc1ccc2ccccc2c1)C(=O)NC1CCCCC1)N[C@@H](Cc1cccnc1)C(=O)N[C@@H](Cc1ccc2ccccc2c1)C(=O)NC1CCCCC1 [M460],,,15,
DArg-Arg-Aud-DIgl-PFF-Arg [M844],,12 µM,,
CC1(C)CC(NC(=O)C(Cc2ccc(-c3ccccc3)cc2)NC(=O)C=Cc2cccnc2)CC(C)(C)N1 (stereo not shown) [M296],,,15,
Aaa-Ser-Pac-hPhe-Arg [M752-5],,Inact,,
CC1(C)CC(NC(=O)C(Cc2ccc3ccccc3c2)NC(=O)CCCCCNC(=O)c2cc(C(=O)NCCCCCC(=O)NC(Cc3ccc4ccccc4c3)C(=O)NC3CC(C)(C)NC(C)(C)C3)cc(C(=O)NCCCCCC(=O)NC(Cc3ccc4ccccc4c3)C(=O)NC3CC(C)(C)NC(C)(C)C3)c2)CC(C)(C)N1 (stereo not shown) [M290-2],,,20,
F5bz-DArg-Arg-Aud-Ser-D5F5-Oic-Arg [M958],,18 µM,,
c[DArg-Arg-Eac-DF5F-Oic-Arg] [M906],,,,"MTT: ED50 for killing of SCLC strain SHP-77 in vitro ([2]; Table 3, cyclic peptides): 45 µM"
